Laboratory results taken from ChEMBL document CHEMBL1201862, “PubChem BioAssay data set” (2004).
Active and inactive are the calls of the source. Rule as the data show it, for most assays here: actives have a measured EC50 and inactives only a lower limit.

What was measured:
[1] = fluconazole-exposed Candida albicans growth modulators – fluorescence, retest, confirmation (AID 2467); assay type: functional, cell-based
[2] = molecular target: ATP-dependent molecular chaperone HSP82 (Candida albicans (strain WO-1) (Yeast), UniProt C4YTQ8); test: steroid-induced GRE reporter decrease in yeast – S. cerevisiae, luminescence, Hsp90 inhibitor project, dose response (AID 2400); assay type: functional, cell-based;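 also: beta-galactosidase luminescence from glucocorticoid response element reporter as proxy for Hsp90 function; inhibitor potency where signal loss means Hsp90 inhibition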
[3] = NIH-3T3 fibroblast cytotoxicity, dose response, cytotoxicity control, cell-based, fluorescence, Alamar Blue, secondary assay (AID 2327); assay type: functional;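 also: NIH-3T3 mouse fibroblasts cultured with fluconazole at 8 µg/mL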
[4] = molecular target: T1, Serine/threonine-protein phosphatase (Candida dubliniensis (strain CD36 / CBS 7987 / NCPF 3949 / NRRLY-17841) (Yeast), UniProt B9W6M3); test: blockers of CaCl2-induced CDRE-lacZ signaling – S. cerevisiae, luminescence, secondary, dose response (AID 2388); assay type: functional, cell-based;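 also: yeast reporter cells carrying a calcineurin-responsive lacZ construct stimulated with calcium chloride; luminescent beta-galactosidase reporter signal in whole cells rather than isolated phosphatase activity; potency for inhibition where a drop in reporter signal means calcineurin blockade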
T1 sequence (B9W6M3 whole entry): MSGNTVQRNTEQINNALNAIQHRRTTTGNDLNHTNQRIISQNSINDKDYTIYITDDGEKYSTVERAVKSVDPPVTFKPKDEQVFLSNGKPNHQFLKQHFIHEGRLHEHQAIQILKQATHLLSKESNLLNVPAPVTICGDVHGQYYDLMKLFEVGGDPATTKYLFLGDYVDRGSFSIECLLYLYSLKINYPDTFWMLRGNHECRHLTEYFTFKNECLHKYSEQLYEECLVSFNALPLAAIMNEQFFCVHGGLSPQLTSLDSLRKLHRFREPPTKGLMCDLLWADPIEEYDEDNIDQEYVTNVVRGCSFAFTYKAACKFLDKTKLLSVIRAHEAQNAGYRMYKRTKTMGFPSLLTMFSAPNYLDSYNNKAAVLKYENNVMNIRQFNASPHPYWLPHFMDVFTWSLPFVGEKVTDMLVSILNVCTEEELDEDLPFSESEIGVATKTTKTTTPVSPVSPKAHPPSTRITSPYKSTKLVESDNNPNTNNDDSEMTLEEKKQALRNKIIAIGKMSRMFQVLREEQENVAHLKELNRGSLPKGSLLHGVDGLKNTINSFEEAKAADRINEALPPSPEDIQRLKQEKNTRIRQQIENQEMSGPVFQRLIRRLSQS

[5] = Trypanosoma cruzi growth suppression in host cells – NIH3T3 host cells, beta-gal luminescence, confirmation (AID 2044); assay type: functional, cell-based;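 also: intracellular parasites grown in NIH/3T3 mouse fibroblasts as host cells; luminescent beta-galactosidase reporter signal from transgenic T. cruzi replicating inside host cells; inhibitors lower the luminescence signal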
H9c2 = test: cells; assay type: functional, cell-based; settings: Rattus norvegicus, H9c2, Myocardium;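 also: confirmatory concentration-response retest of ultra-high-throughput screening hits for modulation of myocardial damage; cell death induced by hydrogen peroxide oxidative stress; compound pretreatment for 60 min then peroxide exposure for 2 h; potency is for protecting the cells against peroxide damage rather than for killing them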
Streptokinase A = molecular target: T2, Streptokinase A (Streptococcus pyogenes serotype M1, UniProt P10520); test: viability-normalized secreted streptokinase activity reduction – plasminogen activation absorbance, OD405, dose response (AID 1914); assay type: functional, Streptococcus pyogenes M1 GAS;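 also: secreted streptokinase activity via plasminogen activation per viability signal from cell pellet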
T2 sequence (P10520 whole entry): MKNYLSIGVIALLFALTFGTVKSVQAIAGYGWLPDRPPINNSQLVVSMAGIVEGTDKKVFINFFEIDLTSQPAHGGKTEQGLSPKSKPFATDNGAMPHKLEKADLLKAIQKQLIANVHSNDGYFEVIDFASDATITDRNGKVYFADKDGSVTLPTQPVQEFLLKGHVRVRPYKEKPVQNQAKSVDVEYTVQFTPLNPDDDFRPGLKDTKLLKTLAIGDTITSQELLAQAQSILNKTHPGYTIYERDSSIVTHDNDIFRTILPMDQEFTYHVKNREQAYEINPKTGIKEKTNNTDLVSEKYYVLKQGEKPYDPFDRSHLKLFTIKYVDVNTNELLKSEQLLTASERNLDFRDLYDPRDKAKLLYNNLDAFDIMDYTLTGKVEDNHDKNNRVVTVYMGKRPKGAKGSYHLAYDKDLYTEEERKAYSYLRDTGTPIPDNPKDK

Beta-galactosidase = Beta-galactosidase (Escherichia coli, UniProt Q8VNN2); test: PubChem AID 485352; assay type: functional
[6] = molecular target: T3, Type-1 angiotensin II receptor (Homo sapiens, UniProt P30556); test: antagonism of angiotensin II type 1 receptor – cell-based, uHTS hits, selectivity assay for APJ receptor antagonist project, dose response (AID 463214); assay type: functional;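 also: antagonist potency against angiotensin II stimulated AT1 response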
T3 sequence (P30556 whole entry): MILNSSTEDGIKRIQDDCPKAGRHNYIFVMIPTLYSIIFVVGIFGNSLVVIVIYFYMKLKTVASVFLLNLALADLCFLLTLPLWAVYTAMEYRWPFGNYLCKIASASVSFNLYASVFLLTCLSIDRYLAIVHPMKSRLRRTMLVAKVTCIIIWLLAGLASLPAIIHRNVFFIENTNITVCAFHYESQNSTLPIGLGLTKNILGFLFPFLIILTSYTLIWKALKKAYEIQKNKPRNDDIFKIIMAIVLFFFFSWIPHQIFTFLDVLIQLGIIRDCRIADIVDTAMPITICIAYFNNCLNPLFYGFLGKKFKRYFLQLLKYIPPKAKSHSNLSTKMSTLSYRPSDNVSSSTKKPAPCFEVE

[7] = NIH3T3 cell viability loss – ATP luminescence, mouse fibroblasts, counter-screen, dose response (AID 2010); assay type: functional, cell-based;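 also: cells exposed to compound for about 90 hours before reading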
[8] = loss of viability in HepG2 cells – cell-based, CellTiter-Glo, cherry-picked, cytotoxicity control for Shn3 inhibitor project, dose response (AID 624134); assay type: functional
[9] = tested on: Streptococcus sp. 'group A'; test: Streptococcus pyogenes SK(-)GAS viability under kanamycin – luminescence, BacTiterGlo, confirmation, counter-screen for streptokinase expression inhibitor project, dose response (AID 1900); assay type: functional, organism-based
Streptococcus = test: GAS UMAA2166 growth inhibition – luminescence, BacTiterGlo, counter-screen for streptokinase expression inhibitor project, dose response (AID 1915); assay type: functional, organism-based;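 also: potency for reduction of bacterial viability or growth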
[10] = reduction of Shn3 3'UTR-driven luciferase in osteoblasts – cell-based, Clone20 osteoblasts, firefly luciferase, cherry-picked, dose response (AID 624132); assay type: functional;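 also: firefly luciferase luminescence from reporter carrying the Shn3 3'UTR in osteoblasts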
[11] = molecular target: T4, Heat shock factor protein 1 (Mus musculus, UniProt P38532); test: enhancement of HSF1-driven luciferase signal – cell-based, NIH3T3, luminescence, dose retest, confirmation (AID 435004); assay type: functional;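 also: stress induced by proteasome inhibitor MG132 added 30 min after compound; luciferase reporter driven by HSF1 response element in NIH3T3 cells; actives raise luminescence as potentiators of the MG132 stress response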
T4 sequence (P38532 whole entry): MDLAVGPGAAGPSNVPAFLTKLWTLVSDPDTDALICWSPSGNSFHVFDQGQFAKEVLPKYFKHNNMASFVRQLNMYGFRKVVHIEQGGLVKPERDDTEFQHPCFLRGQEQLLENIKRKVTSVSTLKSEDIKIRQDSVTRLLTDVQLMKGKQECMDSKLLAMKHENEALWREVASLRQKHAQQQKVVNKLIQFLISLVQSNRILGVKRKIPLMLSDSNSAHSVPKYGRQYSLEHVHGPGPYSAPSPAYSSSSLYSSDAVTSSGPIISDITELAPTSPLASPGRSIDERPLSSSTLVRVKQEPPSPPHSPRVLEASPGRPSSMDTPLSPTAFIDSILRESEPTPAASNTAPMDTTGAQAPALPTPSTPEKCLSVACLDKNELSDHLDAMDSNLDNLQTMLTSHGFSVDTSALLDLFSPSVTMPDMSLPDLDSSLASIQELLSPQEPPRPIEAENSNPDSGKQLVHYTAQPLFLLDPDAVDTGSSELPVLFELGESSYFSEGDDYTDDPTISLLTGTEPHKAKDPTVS

Hexokinase-1 = molecular target: T5, Hexokinase-1 (Homo sapiens, UniProt P19367); test: SAR analysis of small molecule inhibitors of hexokinase domain containing I (HKDC1) in the hexokinase 1 selectivity assay. [Related pubchem assays (depositor defined):AID493160, AID493190]; assay type: functional
T5 sequence (P19367 whole entry): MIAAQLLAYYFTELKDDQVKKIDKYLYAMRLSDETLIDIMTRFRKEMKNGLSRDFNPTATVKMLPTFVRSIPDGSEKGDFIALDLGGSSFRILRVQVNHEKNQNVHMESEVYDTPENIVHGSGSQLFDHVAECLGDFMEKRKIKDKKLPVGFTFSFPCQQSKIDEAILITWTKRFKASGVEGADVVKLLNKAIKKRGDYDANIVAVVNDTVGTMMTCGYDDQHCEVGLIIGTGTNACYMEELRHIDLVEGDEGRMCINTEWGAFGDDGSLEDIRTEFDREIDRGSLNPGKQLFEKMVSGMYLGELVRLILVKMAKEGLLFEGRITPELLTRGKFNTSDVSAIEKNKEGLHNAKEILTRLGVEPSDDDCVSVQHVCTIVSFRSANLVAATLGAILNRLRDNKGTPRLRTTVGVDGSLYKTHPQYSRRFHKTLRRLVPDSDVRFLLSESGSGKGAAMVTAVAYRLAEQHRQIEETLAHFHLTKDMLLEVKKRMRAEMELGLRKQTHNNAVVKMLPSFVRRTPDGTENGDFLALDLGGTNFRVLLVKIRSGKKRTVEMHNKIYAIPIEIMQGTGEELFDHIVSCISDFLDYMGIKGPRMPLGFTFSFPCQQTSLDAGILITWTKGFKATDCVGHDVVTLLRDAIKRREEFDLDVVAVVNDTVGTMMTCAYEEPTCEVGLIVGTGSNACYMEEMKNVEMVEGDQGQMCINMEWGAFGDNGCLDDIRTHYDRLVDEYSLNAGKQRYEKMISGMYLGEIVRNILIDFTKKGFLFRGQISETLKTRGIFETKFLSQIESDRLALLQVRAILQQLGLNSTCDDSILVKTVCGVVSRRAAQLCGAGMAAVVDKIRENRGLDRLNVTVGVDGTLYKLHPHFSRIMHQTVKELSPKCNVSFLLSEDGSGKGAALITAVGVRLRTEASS

Hexokinase HKDC1 = molecular target: T6, Hexokinase HKDC1 (Homo sapiens, UniProt Q2TB90); test: SAR analysis of small molecule inhibitors of hexokinase domain containing I (HKDC1). [Related pubchem assays (depositor defined):AID493160, AID493190]; assay type: functional
T6 sequence (Q2TB90 whole entry): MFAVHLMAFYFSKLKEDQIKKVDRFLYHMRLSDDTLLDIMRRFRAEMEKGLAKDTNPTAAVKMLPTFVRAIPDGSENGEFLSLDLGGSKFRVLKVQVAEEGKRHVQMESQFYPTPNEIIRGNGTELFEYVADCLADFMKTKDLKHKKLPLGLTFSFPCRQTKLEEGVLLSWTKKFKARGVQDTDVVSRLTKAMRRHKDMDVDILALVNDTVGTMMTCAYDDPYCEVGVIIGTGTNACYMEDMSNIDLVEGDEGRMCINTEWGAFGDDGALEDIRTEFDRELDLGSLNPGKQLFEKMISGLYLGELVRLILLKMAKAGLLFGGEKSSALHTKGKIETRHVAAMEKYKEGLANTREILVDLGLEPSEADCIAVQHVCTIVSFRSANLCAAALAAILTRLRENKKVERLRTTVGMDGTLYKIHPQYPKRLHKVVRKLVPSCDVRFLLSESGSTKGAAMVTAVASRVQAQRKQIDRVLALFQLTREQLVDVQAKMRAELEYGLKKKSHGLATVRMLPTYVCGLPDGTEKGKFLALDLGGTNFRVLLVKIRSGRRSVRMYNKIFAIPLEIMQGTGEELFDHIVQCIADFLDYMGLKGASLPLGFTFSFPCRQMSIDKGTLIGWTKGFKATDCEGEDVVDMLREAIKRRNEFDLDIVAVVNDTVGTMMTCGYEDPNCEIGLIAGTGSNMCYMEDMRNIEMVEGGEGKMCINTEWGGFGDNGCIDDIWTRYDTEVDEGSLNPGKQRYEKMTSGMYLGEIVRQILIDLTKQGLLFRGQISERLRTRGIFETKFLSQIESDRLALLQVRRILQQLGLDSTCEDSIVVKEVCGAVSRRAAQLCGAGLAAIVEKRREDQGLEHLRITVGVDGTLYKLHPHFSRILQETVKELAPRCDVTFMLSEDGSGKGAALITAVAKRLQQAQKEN

Sequence of ATP-dependent molecular chaperone HSP82 (C4YTQ8 whole entry): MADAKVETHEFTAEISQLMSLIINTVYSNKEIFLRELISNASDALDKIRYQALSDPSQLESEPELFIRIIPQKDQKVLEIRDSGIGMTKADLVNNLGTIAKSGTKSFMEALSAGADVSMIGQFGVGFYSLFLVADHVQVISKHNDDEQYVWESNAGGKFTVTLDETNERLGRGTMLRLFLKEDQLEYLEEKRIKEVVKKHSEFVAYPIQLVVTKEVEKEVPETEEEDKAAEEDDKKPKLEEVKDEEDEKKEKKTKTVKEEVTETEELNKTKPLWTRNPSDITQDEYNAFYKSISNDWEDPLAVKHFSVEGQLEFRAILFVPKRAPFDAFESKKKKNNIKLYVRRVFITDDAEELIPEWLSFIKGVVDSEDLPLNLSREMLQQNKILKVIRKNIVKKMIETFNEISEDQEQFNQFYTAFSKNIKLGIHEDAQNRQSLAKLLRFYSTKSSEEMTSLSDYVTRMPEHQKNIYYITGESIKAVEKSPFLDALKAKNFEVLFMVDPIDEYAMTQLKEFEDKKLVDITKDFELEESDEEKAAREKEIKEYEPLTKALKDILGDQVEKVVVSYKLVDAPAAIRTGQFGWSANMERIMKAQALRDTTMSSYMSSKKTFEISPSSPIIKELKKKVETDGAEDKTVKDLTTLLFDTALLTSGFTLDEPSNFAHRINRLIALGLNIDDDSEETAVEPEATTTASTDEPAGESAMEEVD
Sequence of Beta-galactosidase (Q8VNN2 whole entry): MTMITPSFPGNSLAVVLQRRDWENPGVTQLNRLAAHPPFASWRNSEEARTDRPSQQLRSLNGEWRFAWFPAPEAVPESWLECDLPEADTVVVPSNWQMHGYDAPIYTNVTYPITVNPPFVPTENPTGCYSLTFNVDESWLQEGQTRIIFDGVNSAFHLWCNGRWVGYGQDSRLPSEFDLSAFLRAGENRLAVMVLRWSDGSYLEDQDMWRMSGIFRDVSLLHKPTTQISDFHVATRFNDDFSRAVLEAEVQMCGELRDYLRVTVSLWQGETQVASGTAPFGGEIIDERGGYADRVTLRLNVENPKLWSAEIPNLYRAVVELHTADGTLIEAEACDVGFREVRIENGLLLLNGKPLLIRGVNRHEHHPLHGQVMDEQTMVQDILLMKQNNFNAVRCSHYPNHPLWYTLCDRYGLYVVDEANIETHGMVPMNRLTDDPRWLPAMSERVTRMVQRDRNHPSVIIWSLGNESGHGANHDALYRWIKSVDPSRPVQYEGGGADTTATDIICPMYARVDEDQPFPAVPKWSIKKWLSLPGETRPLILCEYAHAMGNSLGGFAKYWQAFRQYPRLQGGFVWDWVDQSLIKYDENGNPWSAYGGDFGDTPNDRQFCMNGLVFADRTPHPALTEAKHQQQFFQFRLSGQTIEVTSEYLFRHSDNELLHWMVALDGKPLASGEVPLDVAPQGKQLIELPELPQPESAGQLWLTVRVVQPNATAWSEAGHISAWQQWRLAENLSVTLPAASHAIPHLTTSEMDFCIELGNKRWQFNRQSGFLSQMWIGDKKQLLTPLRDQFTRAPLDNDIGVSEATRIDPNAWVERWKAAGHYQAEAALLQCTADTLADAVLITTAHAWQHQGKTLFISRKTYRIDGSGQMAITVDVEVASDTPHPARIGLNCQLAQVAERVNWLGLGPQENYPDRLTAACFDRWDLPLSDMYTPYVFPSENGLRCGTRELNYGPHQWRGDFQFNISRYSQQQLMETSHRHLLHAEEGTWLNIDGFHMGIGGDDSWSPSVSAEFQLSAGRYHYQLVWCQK

| SMILES | EC50 [1] | EC50 [2] | EC50 [3] | EC50 [4] | IC50 (Hexokinase-1) | IC50 (Hexokinase HKDC1) | further results |
| --- | --- | --- | --- | --- | --- | --- | --- |
| O=C(Cc1ccc(Cl)cc1)NNC(=S)NC(=O)c1cccs1 | 1.43 µM (active) | 16.6 µM (active) | > 160 µM (inactive) | > 180 µM (inactive) |  |  |  |
| O=C(CCS(=O)(=O)c1ccc(F)cc1)Nc1nc(-c2ccncc2)cs1 | 1.39 µM (active) | 16.5 µM (active) | 18.3 µM (inconclusive) | > 180 µM (inactive) |  |  |  |
| COc1ccc(NS(=O)(=O)c2ccc3ccccc3c2)c2ncccc12 | > 38 µM (not active) |  | 60.9 µM (active) |  |  |  | EC50 [5]: 0.688 µM (active); IC50 (H9c2): 11.5 µM (active); EC50 (Streptokinase A): > 150 µM (not active); EC50 (Beta-galactosidase): > 40 µM (inactive); IC50 [6]: 23.1 µM (not active); EC50 [7]: 5.55 µM (active); AC50 [8]: 69.5 µM (active); EC50 [9]: 1.03 µM (active); EC50 (Streptococcus): 4.63 µM (active); AC50 [10]: 4.82 µM (active); EC50 [11]: 7.48 µM (active) |
| Cc1cc2nnc(SCC(=O)Nc3cccc(S(=O)(=O)N4CCCC4)c3)n2c2ccccc12 |  |  |  |  | > 80 µM (inactive) | > 80 µM (inactive) |  |
| O=c1c2ccccc2nc(/C=C/c2ccccn2)n1Cc1ccccc1 |  |  |  |  | > 80 µM (inactive) | > 80 µM (inactive) |  |
| O=c1c2ccccc2nc(/C=C/c2ccccc2)n1Cc1ccccc1 |  |  |  |  | > 80 µM (inactive) | > 80 µM (inactive) |  |
